The source of these data is patent US20250195518A1, “INDAZOLE COMPOUND AND PHARMACEUTICAL USE THEREOF” (Japan Tobacco Inc., priority 2022, published 2025).

As a reminder, the IC50 is the concentration that inhibits the measured activity by half.

The target of assay [1] is T1, human H-PGDS (Homo sapiens (Human), UniProt O60760). Nature of the assay: Human H-PGDS binding inhibitory activity (AlphaLISA antagonistic assay). The settings on record: His-tagged human H-PGDS 0.3 nmol/L, biotinylated H-PGDS inhibitor 45 nmol/L. The procedure: Experimental Example 1: Measurement of Human H-PGDS Binding Inhibitory Activity
The H-PGDS binding inhibitory activity of the test compound was measured by AlphaLISA antagonistic assay. A specific protocol is as follows.
In an AlphaPlate-384 Shallow well plate (Cat. 6008350, PerkinElmer) were added and mixed 240 nL/well of DMSO solution as a compound solution or a solvent control, 3 µL/well (final concentration: 45 nmol/L) of biotinylated H-PGDS inhibitor (see below for the production method) diluted with […] DMSO-containing Assay Buffer (50 mM HEPES-NaOH (pH 7.5), 2 mM GSH, 150 mM NaCl, 2 mM MgCl2, 0.005% Surfactant P20), and 2 μL/well (final concentration: 0.3 nmol/L) of His-tagged human H-PGDS (Cat. ATGP1557, ATgen) diluted with Assay Buffer. As a blank, 2 μL/well of Assay Buffer was added instead of His-tagged human H-PGDS. This plate was allowed to stand at room temperature for 60 min, and Nickel Chelate AlphaLISA Acceptor Beads (Cat. AL108C, Perkin Elmer) at 5 μL/well (final concentration: 20 μg/mL) were added and mixed. After allowing to stand at room temperature for 30 min under shading, AlphaScreen Streptavidin donor beads (Cat. 6760002S, Perkin Elmer) were added at 5 μL/well (final concentration: 30 μg/mL) and mixed. After allowing to stand at room temperature for 60 min under shading, AlphaLISA signals (excitation wavelength: 680 nm, measurement wavelength: 615 nm) were measured using Enspire (Perkin Elmer).
The H-PGDS binding inhibitory activity (inhibitory rate) of each test compound was calculated as follows, and the IC50 value was calculated from the inhibitory rate at two concentrations sandwiching 50%.
In general terms: In Alpha technology, singlet oxygen from a donor bead excites a nearby acceptor bead.

Assay [2] deals with T1, human H-PGDS. Nature of the assay: Human H-PGDS inhibitory activity (enzyme reaction with PGH2, PGD2 ELISA). It is filed as biochemical. The settings on record: human recombinant H-PGDS 1.6 μg/mL, PGH2 50 μmol/L. The procedure:
Using the human H-PGDS expression plasmid DNA (pET28b/hH-PGDS) as a template, PCR (Polymerase Chain Reaction) was performed to amplify a DNA fragment containing human H-PGDS with a NotI recognition cleavage sequence immediately before the translation initiation codon and a BamHI recognition cleavage sequence immediately below the translation end codon. The purified DNA fragment was fused to pET15b (manufactured by Merck KGaA, model number 69661) digested with NotI and BamHI, by using In-Fusion HD Cloning Kit (manufactured by Takara Bio Inc., model number 639649). […] The base sequence of human H-PGDS cloned into the vector was determined by the Dye Terminator method using BigDye Terminator v3.1 Cycle Sequencing Kit (manufactured by Applied Biosystems, model number 4337456). The determined sequence was identical to the sequence of the protein translation region of human H-PGDS (Accession number su NM_014485.2) registered in the NCBI Reference Database. […]
The protein concentration of the human H-PGDS purified fraction was measured with Pierce 660 nm Protein Assay Reagent (manufactured by Thermo Fisher Scientific Inc., model number 22660). […] Human H-PGDS was detected by Western blotting using a rabbit anti-H-PGDS polyclonal antibody (manufactured by LifeSpan BioSciences, Inc, model number LS-B6886). […]
For orientation: An ELISA detects its analyte on a solid surface through an enzyme-linked reagent.

In the next assay the test system is mdx mice. The settings on record: Non-patent Document 7; cited from earlier work.

T1 sequence (O60760 whole entry): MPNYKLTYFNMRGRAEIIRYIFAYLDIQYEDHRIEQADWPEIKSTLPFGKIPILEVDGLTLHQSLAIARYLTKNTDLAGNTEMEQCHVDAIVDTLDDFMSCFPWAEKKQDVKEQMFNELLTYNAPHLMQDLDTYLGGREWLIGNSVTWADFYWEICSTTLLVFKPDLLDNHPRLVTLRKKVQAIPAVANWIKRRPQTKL

Take `Cc1nn(-c2ncc(C(=O)N[C@H]3CC[C@H](C(C)(C)O)CC3)cn2)c2c(C#N)cccc12` [Example 95]: the half-inhibitory concentration (IC50) on human H-PGDS [1] stood at 144 nM.

`CC(C)(O)[C@H]1CC[C@H](NC(=O)c2cnc(-n3nc(Cl)c4ccccc43)nc2)CC1` [Example 24] returned a concentration for half-maximal inhibition (IC50) on human H-PGDS [1] of 3 nM. For `CC(C)(O)[C@H]1CC[C@H](NC(=O)c2cnc(-n3nc(C(F)(F)F)c4ccccc43)nc2)CC1` [Example 46], on human H-PGDS [1], the IC50 amounted to 10 nM.

Regarding `C[C@@H](CC(=O)O)C12CCC(NC(=O)N3CCC(c4ncc(F)c5[nH]cc(F)c45)CC3)(CC1)CC2` (single isomer, unassigned) [enantiomer A], the IC50 on human H-PGDS [2] worked out at 5 nM. In turn, `COc1nn(-c2ncc(C(=O)N[C@H]3CC[C@H](O)CC3)cn2)c2ccccc12` [Example 27] had an IC50 on human H-PGDS [1] of 225 nM.

As to `Cc1nn(-c2ccc(C(=O)N[C@H]3CC[C@H](OC4CCS(=O)(=O)CC4)CC3)cn2)c2cc(F)ccc12` [Example 80], at human H-PGDS [1], the half-maximal inhibitory concentration (IC50) is 17 nM. As for `CC(C)(O)[C@H]1CC[C@H](NC(=O)c2ccc(-n3nc(Cl)c4ccccc43)nc2)CC1` [Example 17], the 50% inhibitory concentration (IC50) at human H-PGDS [1] was determined as 27 nM. Turning to `C[C@H](CC(=O)O)C12CCC(NC(=O)N3CCC(c4ncc(F)c5[nH]cc(F)c45)CC3)(CC1)CC2` (single isomer, unassigned) [enantiomer B], the IC50 on human H-PGDS [2] came out at 6 nM. With `Cc1nn(-c2ncc(C(=O)N[C@H]3CC[C@H](CC(C)(C)O)CC3)cn2)c2cnccc12` [Example 3, N-(Trans-4-(2-hydroxy-2-methylpropyl)cyclohexyl)-2-(3-methyl-1H-pyrazolo[3,4-c]pyridin-1-yl)pyrimidine-5-carboxamide], the IC50 on human H-PGDS [1] worked out at 21 nM.

`CS(=O)(=O)CCCO[C@H]1CC[C@H](NC(=O)c2cnc(-n3nc(C(F)F)c4ccccc43)nc2)CC1` [Example 6, 2-(3-(difluoromethyl)-1H-indazol-1-yl)-N-(trans-4-(3-(methylsulfonyl)propoxy)cyclohexyl)pyrimidine-5-carboxamide] displayed an IC50 at human H-PGDS [1] of 3 nM. `CC(C)(O)C12CC(NC(=O)c3cnc(-n4nc(C(F)F)c5ccccc54)nc3)(C1)C2` [Example 255]: the concentration for half-maximal inhibition (IC50) on human H-PGDS [1] is 7 nM. For the molecule `Cc1nn(-c2ccc(C(=O)NC3CCCCC3)cc2)c2ccccc12` [Example 11], the IC50 on human H-PGDS [1] amounted to 171 nM. At human H-PGDS [1], `Cc1nn(-c2ncc(C(=O)N[C@H]3CC[C@H](O)CC3)cc2F)c2ccccc12` [Example 54] returned an IC50 of 41 nM. The molecule `Cc1nn(-c2ncc(C(=O)N[C@H]3CC[C@H](O)CC3)cn2)c2ccccc12` [Example 18] showed an IC50 at human H-PGDS [1] of 45 nM. Still for that read-out and setting: the value for `Cc1nn(-c2ncc(C(=O)N[C@H]3CC[C@@](C)(O)CC3)cn2)c2cc(F)ccc12` [Example 204] was 14 nM. As to `c1ccc(C(OC2CCN(CCCc3nn[nH]n3)CC2)c2ccccc2)cc1` [HQL-79], in the assay with mdx mice, the muscle strength entry was “increases muscle strength” and the myonecrosis entry is “suppresses myonecrosis”.

As to `Cc1nn(-c2ncc(C(=O)N[C@H]3CC[C@H](OCC(C)(C)O)CC3)cn2)c2ccccc12` [Example 4, N-(trans-4-(2-hydroxy-2-methylpropoxy)cyclohexyl)-2-(3-methyl-1H-indazol-1-yl)pyrimidine-5-carboxamide], the IC50 at human H-PGDS [1] was found to be 5 nM.

Take `Cc1nn(-c2ccc(C(=O)N[C@H]3CC[C@H](C(C)(C)O)CC3)cn2)c2ccccc12` [Example 15]: the 50% inhibitory concentration (IC50) on human H-PGDS [1] worked out at 12 nM. `Cc1nc([C@H]2CC[C@H](NC(=O)c3cnc(-n4nc(C)c5ccc(F)cc54)nc3)CC2)no1` [Example 150] registered a half-maximal inhibitory concentration (IC50) at human H-PGDS [1] of 14 nM. For the molecule `Cc1nn(-c2ccc(C(=O)N[C@H]3CC[C@H](O)CC3)cn2)c2c(F)cccc12` [Example 41], the 50% inhibitory concentration (IC50) at human H-PGDS [1] worked out at 374 nM. The molecule `Cc1nn(-c2ncc(C(=O)NC34CC(C(C)(C)O)(C3)C4)cn2)c2cc(F)ccc12` [Example 7, 2-(6-fluoro-3-methyl-1H-indazol-1-yl)-N-(3-(2-hydroxypropan-2-yl)bicyclo[1.1.1]pentan-1-yl)pyrimidine-5-carboxamide] came in with an IC50 at human H-PGDS [1] of 11 nM. As for `CC(C)(O)C(=O)N1CCC(NC(=O)c2cnc(-n3nc(C(F)F)c4ccc(F)cc43)nc2)CC1` [Example 254], at human H-PGDS [1], the IC50 was determined as 14 nM. The same measure, in the same setting: the value for `Cc1nn(-c2ccc(C(=O)N[C@H]3CC[C@H](C(C)(C)O)CC3)cn2)c2cccc(F)c12` [Example 50] was 74 nM; that for `CC(C)(O)[C@H]1CC[C@H](NC(=O)c2cnc(-n3nc(C(F)F)c4ccncc43)nc2)CC1` [Example 9, 2-(3-(difluoromethyl)-1H-pyrazolo[3,4-c]pyridin-1-yl)-N-(trans-4-(2-hydroxypropan-2-yl)cyclohexyl)pyrimidine-5-carboxamide] was 13 nM. Turning to `Cc1nn(-c2ccc(C(=O)N[C@H]3CC[C@H](C(C)(C)O)CC3)cn2)c2cc(F)ccc12` [Example 40], on human H-PGDS [1], the half-maximal inhibitory concentration (IC50) came out at 7 nM.

`Cc1nn(-c2ncc(C(=O)N[C@H]3CC[C@H](C(C)(C)O)CC3)cn2)c2cc(F)ccc12` [Example 1, 2-(6-fluoro-3-methyl-1H-indazol-1-yl)-N-(trans-4-(2-hydroxypropan-2-yl)cyclohexyl)pyrimidine-5-carboxamide] displayed a 50% inhibitory concentration (IC50) on human H-PGDS [1] of 3 nM. Still for that read-out and setting: in the case of `Cc1nn(-c2ccc(C(=O)N[C@H]3CC[C@H](O)CC3)cn2)c2cc(F)ccc12` [Example 39] it was 71 nM; in that of `Cc1nn(-c2ncc(C(=O)N[C@H]3CC[C@H](O)CC3)cn2)c2cccc(F)c12` [Example 42], 200 nM.
